We go through 19 molecules from US8063098B2, “GlyT1 receptor antagonists” (Hoffmann-La Roche Inc., priority 2008, dated 2011).

Broadly, the IC50 is the point on the concentration scale where inhibition reaches its midpoint. Read a low IC50 as greater potency in that assay.

This test concerns the target T1, mGlyT-1b (Mus musculus, UniProt P28571).
T1 construct: host or cells: Flp-in-CHO
T1 sequence (P28571 1-651 isoform P28571-2): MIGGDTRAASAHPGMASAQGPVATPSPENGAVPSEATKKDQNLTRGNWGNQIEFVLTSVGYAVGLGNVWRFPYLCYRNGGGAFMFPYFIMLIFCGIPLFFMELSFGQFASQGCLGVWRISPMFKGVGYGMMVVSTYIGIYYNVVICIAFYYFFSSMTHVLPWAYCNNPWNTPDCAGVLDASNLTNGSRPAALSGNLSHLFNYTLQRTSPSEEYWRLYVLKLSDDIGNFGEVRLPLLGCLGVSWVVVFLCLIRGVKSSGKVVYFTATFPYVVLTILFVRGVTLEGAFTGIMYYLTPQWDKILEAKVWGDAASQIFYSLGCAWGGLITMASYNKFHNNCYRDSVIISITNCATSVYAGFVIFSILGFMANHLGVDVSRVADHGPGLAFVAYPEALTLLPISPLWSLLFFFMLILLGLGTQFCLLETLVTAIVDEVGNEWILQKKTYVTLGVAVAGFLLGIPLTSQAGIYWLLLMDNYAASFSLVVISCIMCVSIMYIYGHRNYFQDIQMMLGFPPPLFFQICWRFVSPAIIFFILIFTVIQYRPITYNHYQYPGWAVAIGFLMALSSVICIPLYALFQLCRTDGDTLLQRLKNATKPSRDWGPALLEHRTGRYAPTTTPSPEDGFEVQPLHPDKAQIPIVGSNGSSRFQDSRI
Kind of test: Glycine uptake inhibition assay (mGlyT-1b), [3H]-glycine uptake in Flp-in-CHO cells. The format is cell-based. To be noted: Flp-in-CHO cells stably transfected with mGlyT1b cDNA, 20 min at 22° C. preincubation. As for the experimental part:
Nutrient mixture F-12 (Gibco Life-technologies), fetal bovine serum (FBS) 5%, (Gibco life technologies), Penicillin/Streptomycin 1% (Gibco life technologies), Hygromycin 0.6 mg/ml (Gibco life technologies), Glutamine 1 mM Gibco life technologies) • Uptake buffer (UB): 150 mM NaCl, 10 mM Hepes-Tris, pH 7.4, […], 2.5 mM KCl, 2.5 mM MgSO4, 10 mM (+) D-glucose. • Flp-in™-CHO (Invitrogen Cat n° R758-07) cells stably transfected with mGlyT1b cDNA. Glycine Uptake Inhibition Assay (mGlyT-1b)
On day 1 mammalian cells, (Flp-in™-CHO), transfected with mGlyT-1b cDNA, were plated at the density of 40,000 cells/well in complete F-12 medium, without hygromycin in 96-well culture plates. On day 2, the medium was aspirated and the cells were washed twice with uptake buffer (UB). The cells were then incubated for 20 min at 22° C. with either (i) no potential competitor, (ii) 10 mM non-radioactive glycine, (iii) a concentration of a potential inhibitor. A range of concentrations of the potential inhibitor was used to generate data for calculating the concentration of inhibitor resulting in 50% of the effect (e.g. IC50, the concentration of the competitor inhibiting glycine uptake of 50%). A solution was then immediately added containing [^3H]-glycine 60 nM (11-16 Ci/mmol) and 25 μM non-radioactive glycine. The plates were incubated with gentle shaking and the reaction was stopped by aspiration of the mixture and washing (three times) with ice-cold UB. The cells were lysed with scintillation liquid, shaken 3 hours and the radioactivity in the cells was counted using a scintillation counter.

`CSc1cc(C(F)(F)F)ccc1C(=O)NC(c1ccccc1)C1(N2CCN(C3CC3)CC2)CCC1` (stereo not shown) [Example 72, N-{[1-(4-Cyclopropyl-piperazin-1-yl)-cyclobutyl]-phenyl-methyl}-2-methylsulfanyl-4-trifluoromethyl-benzamide] gave a 50% inhibitory concentration (IC50) of 0.0494 µM.

As for `CSc1cc(C(F)(F)F)ccc1C(=O)NC(c1cc(F)cc(F)c1)C1(N2CCCC2)CCC1` (stereo not shown) [Example 40, N-[(3,5-Difluoro-phenyl)-(1-pyrrolidin-1-yl-cyclobutyl)-methyl]-2-methylsulfanyl-4-trifluoromethyl-benzamide], the concentration for half-maximal inhibition (IC50) is 0.0322 µM.

Turning to `CSc1cc(C(F)(F)F)cc(C(F)(F)F)c1C(=O)NC(c1ccccc1)C1(N2CCCC2)CCC1` (stereo not shown) [Example 9, 2-Methylsulfanyl-N-[phenyl-(1-pyrrolidin-1-yl-cyclobutyl)-methyl]-4,6-bis-trifluoromethyl-benzamide], the IC50 worked out at 0.0295 µM.

For the molecule `CSc1cc(C(F)(F)F)cc(C(F)(F)F)c1C(=O)NC(c1ccccc1)C1(N2CCCC2)CC1` (stereo not shown) [Example 6, 2-Methylsulfanyl-N-[phenyl-(1-pyrrolidin-1-yl-cyclopropyl)-methyl]-4,6-bis-trifluoromethyl-benzamide], the half-maximal inhibitory concentration (IC50) was 0.0683 µM.

`COc1cc(C(F)(F)F)cc(SC)c1C(=O)NC(c1cccc(F)c1)C1(N2CCCC2)CCC1` (stereo not shown) [Example 56, N-[(3-Fluoro-phenyl)-(1-pyrrolidin-1-yl-cyclobutyl)-methyl]-2-methoxy-6-methylsulfanyl-4-trifluoromethyl-benzamide] had a 50% inhibitory concentration (IC50) of 0.0135 µM.

On to `O=C(NC(c1ccccc1)C1(N2CCCC2)CCC1)c1ccc(Cl)cc1Cl` (stereo not shown) [Example 43, 2,4-Dichloro-N-[phenyl-(1-pyrrolidin-1-yl-cyclobutyl)-methyl]-benzamide], for which the half-inhibitory concentration (IC50) was 0.0669 µM.

For `CSc1cc(C(F)(F)F)cc(C(F)(F)F)c1C(=O)NC(c1ccccc1)C1(N2CCCC2)CC1` (single isomer, unassigned; (-)) [Example 29, (−)-2-Methylsulfanyl-N-[phenyl-(1-pyrrolidin-1-yl-cyclopropyl)-methyl]-4,6-bis-trifluoromethyl-benzamide], the IC50 stood at 0.0509 µM.

In turn, `COc1cc(C(F)(F)F)cc(C(F)(F)F)c1C(=O)NC(c1ccccc1)C1(N2CCCC2)CCC1` (stereo not shown) [Example 14, 2-Methoxy-N-[phenyl-(1-pyrrolidin-1-yl-cyclobutyl)-methyl]-4,6-bis-trifluoromethyl-benzamide] displayed an IC50 of 0.0455 µM.

Regarding `COc1cc(C(F)(F)F)cc(SC)c1C(=O)NC(c1ccccc1)C1(N2CCSCC2)CCC1` (stereo not shown) [Example 66, 2-Methoxy-6-methylsulfanyl-N-[phenyl-(1-thiomorpholin-4-yl-cyclobutyl)-methyl]-4-trifluoromethyl-benzamide], the half-inhibitory concentration (IC50) came out at 0.0915 µM.

`O=C(NC(c1ccccc1)C1(N2CCCC2)CCC1)c1ccc(C(F)(F)F)cc1-c1ccccc1` (stereo not shown) [Example 67, 5-Trifluoromethyl-biphenyl-2-carboxylic acid [phenyl-(1-pyrrolidin-1-yl-cyclobutyl)-methyl]-amide] registered an IC50 of 0.0562 µM.

Molecule `CSc1cc(C(F)(F)F)ccc1C(=O)NC(c1ccc(Cl)cc1)C1(N2CCCC2)CCC1` (stereo not shown) [Example 36, N-[(4-Chloro-phenyl)-(1-pyrrolidin-1-yl-cyclobutyl)-methyl]-methylsulfanyl-4-trifluoromethyl-benzamide] registered an IC50 of 0.0597 µM.

Molecule `COc1cc(F)cc(SC)c1C(=O)NC(c1ccccc1)C1(N2CCCC2)CCC1` (stereo not shown) [Example 11, 4-Fluoro-2-Methoxy-6-methylsulfanyl-N-[phenyl-(1-pyrrolidin-1-yl-cyclobutyl)-methyl]-benzamide] yielded a concentration for half-maximal inhibition (IC50) of 0.0122 µM.

`Cc1cc(C(F)(F)F)ccc1C(=O)NC(c1ccccc1)C1(N2CCCC2)CCC1` (stereo not shown) [Example 41, 2-Methyl-N-[phenyl-(1-pyrrolidin-1-yl-cyclobutyl)-methyl]-4-trifluoromethyl-benzamide] registered a 50% inhibitory concentration (IC50) of 0.0148 µM.

`COc1cc(C(F)(F)F)cc(SC)c1C(=O)NC(c1ccccc1)C1(N2CCCCC2)CCC1` (stereo not shown) [Example 49, 2-Methoxy-6-methylsulfanyl-N-[phenyl-(1-piperidin-1-yl-cyclobutyl)-methyl]-4-trifluoromethyl-benzamide] displayed a half-inhibitory concentration (IC50) of 0.0237 µM.

Molecule `CSc1cc(C(F)(F)F)ccc1C(=O)NC(c1ccc(F)cc1)C1(N2CCCC2)CCC1` (stereo not shown) [Example 24, N-[(4-Fluoro-phenyl)-(1-pyrrolidin-1-yl-cyclobutyl)-methyl]-2-methylsulfanyl-4-trifluoromethyl-benzamide] came in with a half-inhibitory concentration (IC50) of 0.02 µM.

In turn, `CSc1cc(C(F)(F)F)cc(C(F)(F)F)c1C(=O)NC(c1ccccc1)C1(N2CCCC2)CCC1` (single isomer, unassigned; (+)) [Example 30, (+)-2-Methylsulfanyl-N-[phenyl-(1-pyrrolidin-1-yl-cyclobutyl)-methyl]-4,6-bis-trifluoromethyl-benzamide] had an IC50 of 0.047 µM.

For the molecule `CSc1cc(C(F)(F)F)ccc1C(=O)NC(c1cccc(F)c1)C1(N2CCCC2)CCC1` (stereo not shown) [Example 55, N-[(3-Fluoro-phenyl)-(1-pyrrolidin-1-yl-cyclobutyl)-methyl]-2-methylsulfanyl-4-trifluoromethyl-benzamide], the half-maximal inhibitory concentration (IC50) stood at 0.0139 µM.

`COc1cc(C(F)(F)F)cc(SC)c1C(=O)NC(c1ccc(Cl)cc1)C1(N2CCCC2)CCC1` (stereo not shown) [Example 39, N-[(4-Chloro-phenyl)-(1-pyrrolidin-1-yl-cyclobutyl)-methyl]-2-methoxy-6-methylsulfanyl-4-trifluoromethyl-benzamide] returned an IC50 of 0.0211 µM.

In turn, `COc1cc(C(F)(F)F)cc(SC)c1C(=O)NC(c1ccccc1)C1(N2CCCC2)CC1` (stereo not shown) [Example 10, 2-Methoxy-6-methylsulfanyl-N-[phenyl-(1-pyrrolidin-1-yl-cyclopropyl)-methyl]-4-trifluoromethyl-benzamide] returned an IC50 of 0.0253 µM.
